# Data as given in the RepoRT retention time repository.
# Assay: Waters ACQUITY UPLC BEH C18, 100 × 2.1 mm, 1.7 µm, 40 °C, 0.3 to 0.4 mL/min, estimated dead time 0.63 min; A: water + 0.1% formic acid; B: methanol + 0.1% formic acid; gradient (min/%B) 0/0.5 0.1/0.5 10/80 10.1/99.5 12/99.5
# Conditions: stereoisomer not certain
row,SMILES,LC retention time [min]
1,CC1(C)CC(O)C2(C)CCC3(C)C(=CCC4C5(C)CCC(OC6OC(C(=O)O)C(O)C(O)C6OC6OC(CO)C(O)C(O)C6OC6OCC(O)C(O)C6O)C(C)(CO)C5CCC43C)C2C1 (configuration not stated),5.73
2,COc1c(CC=C(C)C)c(O)cc2c1C1Oc3cc(O)c(CC=C(C)C)cc3C1CO2 (configuration not stated),9.29
3,COC(=O)C1CC23CCC[N+]4([O-])CCC5(c6ccccc6NC15CC2)C34 (configuration not stated),4.18
4,COc1c(C=CC(=O)c2ccc(O)c(O)c2)ccc(O)c1CC=C(C)C,7.49
5,CC(O)(CC(=O)O)CC(=O)OCC1OC(Oc2c(-c3ccc(O)cc3)oc3cc(O)cc(O)c3c2=O)C(O)C(O)C1O (configuration not stated),4.5
6,COc1cc(C=CC(=O)O)ccc1O,4.24
7,CCC1(O)C(=O)OCc2c1cc1n(c2=O)Cc2cc3ccccc3nc2-1 (configuration not stated),5.4
8,O=C(O)C=Cc1ccccc1,5.42
9,O=C1c2c(O)cc(O)cc2OC(c2ccc(O)cc2)C1O (configuration not stated),4.8
10,COc1cc2c(=O)c(-c3ccc(O)cc3)coc2cc1O,5.3
11,CC1(C)C=CC2(C)CCC3(C)C(=CCC4C5(C)CCC(O)C(C)(CO)C5CCC43C)C2C1 (configuration not stated),10.4
12,COc1ccc2c(c1)OC(OC1OC(C(=O)O)C(O)C(O)C1O)C(O)N2 (configuration not stated),2.19
13,CC1(C)CC2C3=CCC4C5(C)CCC(O)C(C)(CO)C5CCC4(C)C3(C)CCC2(C)C(O)C1O (configuration not stated),8.94
14,NC(C(=O)O)c1ccccc1 (configuration not stated),2
15,CCCCCCCCC=CCCCCCCCC(=O)OCC(O)COP(=O)([O-])OCC[N+](C)(C)C (configuration not stated),10.1
16,COc1ccc(CC2c3cc(OC)c(OC)cc3CCN2C)cc1OC (configuration not stated),4.26
17,O=C(C=CC=Cc1ccc2c(c1)OCO2)N1CCCCC1,7.84
18,O=c1c(OC2OC(CO)C(O)C(O)C2O)c(-c2cc(O)c(O)c(O)c2)oc2cc(O)cc(O)c12 (configuration not stated),3.64
19,COc1cc2c(c(OC)c1OC)-c1ccc(OC)c(=O)cc1C(N(C)Cc1ccccc1O)CC2 (configuration not stated),5.03
20,Nc1ccc(C(=O)NC(CCC(=O)O)C(=O)O)cc1 (configuration not stated),3.22
21,CCCCCC=CC=CC(CCCCCCCC(=O)O)OO (configuration not stated),8

row,SMILES,LC retention time [min]
1,CC(C)=CCCC(C)(OC1OC(COC2OC(CO)C(O)C(O)C2O)C(O)C(O)C1O)C1CCC2(C)C1C(O)CC1C3(C)CCC(OC4OC(CO)C(O)C(O)C4OC4OC(CO)C(O)C(O)C4O)C(C)(C)C3CCC12C (configuration not stated),5.88
2,O=c1c(O)c(-c2ccc(OC3OC(CO)C(O)C(O)C3O)c(O)c2)oc2cc(O)cc(O)c12 (configuration not stated),4.51
3,O=C(O)CC(O)(CC(=O)O)C(=O)O,1.57
4,NCCCCNC(=O)C=Cc1ccc(O)c(O)c1,2.22
5,COc1cc(C=CC(=O)OC2C(O)CC(O)(C(=O)O)CC2O)ccc1O (configuration not stated),3.74
6,CC(C)CC(N)C(=O)NCC(=O)O (configuration not stated),2.08
7,COC(=O)CC(OC(=O)C=Cc1cc(OC)c(O)c(OC)c1)C(=O)OC (configuration not stated),3.28
8,Oc1ccc(C2Oc3cc(O)cc(O)c3CC2O)cc1 (configuration not stated),4.91
9,CC1(C)CC(O)C2(C)CCC3(C)C(=CCC4C5(C)CCC(OC6OC(C(=O)O)C(O)C(O)C6OC6OC(CO)C(O)C(O)C6OC6OC(CO)C(O)C(O)C6O)C(C)(CO)C5CCC43C)C2C1 (configuration not stated),6.97
10,O=C1C(O)Oc2ccccc2N1O (configuration not stated),1.83
11,COc1cc2cc3c4cc(OC)c(OC)cc4cc[n+]3c(C)c2cc1OC,5.27
12,C=C1CC23CC4C5C6(C)CC(OC(C)=O)CC57C2C(O)C1C(O)C3(O)C7N4C6 (configuration not stated),3.03
13,CCCCCC(O)C(O)CC=CCCCCCCCC(=O)O (configuration not stated),8.39
14,COc1cc(C2Oc3c(O)cc(C4Oc5cc(O)cc(O)c5C(=O)C4O)cc3C2CO)ccc1O (configuration not stated),4.96
15,O=c1cc(-c2ccc(O)cc2)oc2cc(O)c(C3OC(CO)C(O)C(O)C3O)c(O)c12 (configuration not stated),3.95
16,COc1ccc(Cc2nccc3cc(OC)c(OC)cc23)cc1OC,4.49
17,COC(=O)C1=COC(C)C2CN3CCC4(C(=O)Nc5c4ccc(OC)c5OC)C3CC12 (configuration not stated),4.48
18,COc1ccc(CCC(=O)c2c(O)cc(OC3OC(CO)C(O)C(O)C3OC3OC(C)C(O)C(O)C3O)cc2O)cc1O (configuration not stated),5.07
19,COc1cc(C=CC=O)ccc1O,4.76
20,COc1cc(CC2C(=O)OCC2Cc2ccc(OC)c(OC)c2)ccc1O (configuration not stated),6.63
21,COC(=O)C12CC3CC(C(C)O)C1N(CCc1c2[nH]c2ccc(OC)cc12)C3 (configuration not stated),4.61

row,SMILES,LC retention time [min]
1,CC=CS(=O)CC(NC(=O)CCC(N)C(=O)O)C(=O)O (configuration not stated),1.79
2,CC(C)=CCCC(C)(OC1OC(COC2OCC(O)C(O)C2O)C(O)C(O)C1O)C1CCC2(C)C1C(O)CC1C3(C)CCC(OC4OC(CO)C(O)C(O)C4OC4OC(CO)C(O)C(O)C4O)C(C)(C)C3CCC12C (configuration not stated),6.14
3,CC(=O)OC1C(C(=O)O)OC(OC2C(O)C(O)OC(CO)C2O)C(O)C1OC1OC(CO)C(O)C(O)C1O (configuration not stated),5.48
4,CS(=O)CCCCCCCC(N)C(=O)O (configuration not stated),2.28
5,COc1cc(-c2oc3cc(O)cc(O)c3c(=O)c2OC2OC(COC3OC(C)C(O)C(O)C3O)C(O)C(O)C2O)ccc1O (configuration not stated),4.17
6,CN1CCc2cc3c(c4c2C1Cc1ccccc1-4)OCO3 (configuration not stated),4.89
7,O=C(O)c1cc2c(c3c1c([N+](=O)[O-])cc1ccc(O)cc13)OCO2,5.96
8,COc1ccc(C2CC(=O)c3c(O)cc(OC4OC(CO)C(O)C(O)C4OC4OC(C)C(O)C(O)C4O)cc3O2)cc1 (configuration not stated),5.42
9,CC1C(=O)OC2C(O)C34C5CC(C(C)(C)C)C36C(OC(=O)C6O)OC4(C(=O)O5)C12O (configuration not stated),5.36
10,C=CCSCC(NC(=O)CCC(N)C(=O)O)C(=O)O (configuration not stated),2.98
11,CSCC1OC(n2cnc3c(N)ncnc32)C(O)C1O (configuration not stated),2.7
12,O=c1c2ccccc2nc2n1CCC2,3.94
13,COC(=O)C1=COC(OC2OC(CO)C(O)C(O)C2O)C2C1CC(O)C2C (configuration not stated),3.36
14,COC1C(O)C(OC2C(OC3C(OC4CCC5(C)C(CCC6(C)C5CC=C5C7CC(C)(C)CC(O)C7(C)CCC56C)C4(C)CO)OC(C(=O)O)C(O)C3O)OC(C(=O)O)C(O)C2O)OC(CO)C1OC(C)=O (configuration not stated),7.33
15,N#CC(OC1OC(COC2OC(CO)C(O)C(O)C2O)C(O)C(O)C1O)c1ccccc1 (configuration not stated),3.32
16,COc1ccc2c(c1O)-c1c(OC)c(OC)cc3c1C(C2)N(C)CC3 (configuration not stated),3.92
17,O=c1cc(-c2ccc(OC3OC(CO)C(O)C(O)C3O)c(O)c2)oc2cc(O)cc(O)c12 (configuration not stated),4.45
18,COc1ccc(-c2cc(=O)c3c(OC)cc(OC)c(-c4cc(-c5cc(=O)c6c(OC)cc(OC)cc6o5)ccc4OC)c3o2)cc1,7.39
19,CN1CCC23c4ccccc4NC1C21CCN(C)C3Nc2ccccc21,2.57
20,CCCCC(=O)OC1C(CO)OC(OC2(CO)OC(CO)C(OC(C)=O)C2O)C(OC(=O)CCC)C1OC(=O)CCCC (configuration not stated),8.04
21,O=c1cc(-c2ccc(O)cc2)oc2cc(OC3OC(CO)C(O)C(O)C3O)c(C3OC(CO)C(O)C(O)C3O)c(O)c12 (configuration not stated),3.52

row,SMILES,LC retention time [min]
1,C=CC1C(OC2OC(CO)C(O)C(O)C2O)OC=C(C(=O)OC)C1CC1NCCc2c1[nH]c1ccccc21 (configuration not stated),4.36
2,CC(C)=CCc1c(O)cc(O)c(CC=C(C)C)c1CCc1ccc(O)c(O)c1,7.84
3,CC1OC(Oc2cc(O)c3c(=O)c(OC4OC(COC5OC(CO)C(O)C(O)C5O)C(O)C(O)C4O)c(-c4ccc(O)cc4)oc3c2)C(O)C(O)C1O (configuration not stated),3.62
4,CC(C)=CCCC(C)(O)C1CCC2(C)C1C(O)CC1C3(C)CCC(O)C(C)(C)C3C(OC3OC(CO)C(O)C(O)C3OC3OC(C)C(O)C(O)C3O)CC12C (configuration not stated),6.25
5,CC1=C(O)C(=O)CC(OC2CC(C)(C)CC3C4=CCC5C6(C)CCC(OC7OC(C(=O)O)C(O)C(O)C7OC7OCC(O)C(O)C7OC7OC(C)C(O)C(O)C7O)C(C)(CO)C6CCC5(C)C4(C)CCC23C)O1 (configuration not stated),7.79
6,CC(NC(=O)Cc1c[nH]c2ccccc12)C(=O)O (configuration not stated),4.55
7,OCC1OC(Oc2cc3c(OC4OC(CO)C(O)C(O)C4O)cc(O)cc3[o+]c2-c2ccc(O)cc2)C(O)C(O)C1O (configuration not stated),2.71
8,COc1cc2oc(-c3ccc(O)cc3)cc(=O)c2c(O)c1C1OC(CO)C(O)C(O)C1O (configuration not stated),4.08
9,COc1ccc2cc1Oc1ccc(cc1)CC1c3cc(c(OC)cc3CCN1C)Oc1c(OC)c(OC)c(OC)c3c1C(C2)N(C)CC3 (configuration not stated),4.41
10,CS(=O)C=CCCN=C=S (configuration not stated),3.77
11,CCCCCCCCC=CCCCCCCCC(=O)OCC(O)COP(=O)([O-])OCC[NH3+] (configuration not stated),10.2
12,O=C(C=Cc1ccc(O)c(O)c1)OC1C(O)CC(O)(C(=O)O)CC1O (configuration not stated),4.6
13,COc1cc(C2OCC3C(c4cc(OC)c(OC5OC(CO)C(O)C(O)C5O)c(OC)c4)OCC23)cc(OC)c1OC1OC(CO)C(O)C(O)C1O (configuration not stated),3.61
14,CC(CN)CCC1(O)OC2CC3C4CCC5CC(OC6OC(CO)C(OC7OC(CO)C(O)C(OC8OCC(O)C(O)C8O)C7OC7OC(CO)C(O)C(O)C7O)C(O)C6O)CCC5(C)C4CCC3(C)C2C1C (configuration not stated),4.31
15,CC1(C)CCC2(C(=O)O)CCC3(C)C(=CCC4C5(C)CC(O)C(O)C(C)(C)C5CCC43C)C2C1 (configuration not stated),9.77
16,Nc1ncnc2c1ncn2C1OC(CO)C(O)C1O (configuration not stated),1.88
17,CC1OC(OC2CCC3(C)C(CCC4(C)C3C=CC35OCC6(CCC(C)(C)CC63)C(O)CC45C)C2(C)CO)C(O)C(OC2OC(CO)C(O)C(O)C2O)C1O (configuration not stated),8.25
18,CCC12C=CCN3CCC4(C(=C(C(=O)OC)C1)Nc1ccccc14)C32 (configuration not stated),5.2
19,Oc1ccc(CCc2cc(O)cc(O)c2)cc1,5.15
